Tests used:
PLAU mRNA = assay: Down-regulation of PLAU mRNA expression by dasatinib; type: cell-based, human; settings: for reduction of PLAU mRNA expression: 100 nM, 48 hours vs DMSO
From the text: FIG. 3. PLAU gene expression and regulation by dasatinib analyzed at mRNA and protein levels. (A) Differential baseline expression of PLAU gene between resistant (R, in black) and sensitive (S, in red) cell lines. The X-values are the expression level in log2-scale. The resistant cell line expressing high level of PLAU was WPMY1 and the sensitive cell line expressing low level of PLAU was LNCaP. (B) Down-regulation of PLAU mRNA level by dasatinib-treatment in 5 sensitive cell lines. The cells were treated with 100 nM dasatinib (+D) or DMSO (Ctrl) for 48 hours. The p value was 0.048 in paired t-test, indicating a significant reduction of PLAU mRNA following dasatinib treatment. (C) Correlation between dasatinib-induced PLAU mRNA down-regulation with the sensitivity of cell lines to dasatinib. In addition to those 5 sensitive cells, three dasatinib-resistant cell lines 22Rv, MDAPCa2b, and VCaP were also treated with dasatinib same as in FIG. 3B. The extent of PLAU down-regulation by dasatinib (Y-axis) was negatively correlated with the log2IC50 values (X-axis) of these 8 cell lines. (D) Dose-dependent down-regulation of PLAU mRNA expression in PC3 cells. Cells were treated with or without different concentrations of dasatinib for 4 or 24 hours. The PLAU expression level relative to control was shown in Y-axis. (E) Dose-dependent inhibition of secreted uPA protein in PC3 cells by dasatinib but not by TAXOL®. Cells were treated with different doses of dasatinib, TAXOL® or DMSO for 24 hours. The amount of uPA protein secreted into the culture medium by 50,000 viable cells was assessed by ELISA assay.
The down-regulation of PLAU mRNA expression by dasatinib was observed (FIG. 3B).
AFFYMETRIX® HG-U133v2 gene chips containing ˜22,000 probe sets were used for gene expression profiling (Affymetrix, Santa Clara, Calif.). Total RNA was isolated from the cells using the RNeasy kits (Qiagen, Valencia, Calif.). The quality of the RNA was assessed using an Agilent 2100 Bioanalyzer (Agilent, Santa Clara, Calif.). Ten μg of total RNA was used for the preparation of biotin-labeled cRNA. Chip hybridization, scanning and data acquisition were performed according to the Expression Analysis Technical Manual provided by the manufacturer.
The raw expression data were normalized using an RMA algorithm and analyzed in PARTEK® Discovery Suite software (Partek, St Louis, Mo.). Two statistical analyses including 1-way ANOVA for comparison of gene expression between sensitive and resistant cell line groups, and Pearson correlation between gene expression level and log2IC50 values were performed to identify genes whose baseline expression levels correlated with the sensitivity to dasatinib in 16 prostate cell lines (p value<0.05 in both analyses). […] ESTs and gene duplicates were eliminated from the final list. Gene expression profiles of drug treated (100 nM for 2 days) cell lines were compared with those of DMSO control using paired t-test (p value<0.05). Clustering analysis was performed using GeneCluster software and heatmaps were generated with red and green indicating high or low expression respectively.

[1] = test system: secreted uPA protein in PC3 cells; assay: uPA protein ELISA assay of culture medium; type: cell-based, human; settings: different doses, 24 h, per 50,000 viable cells
From the text: FIG. 3. PLAU gene expression and regulation by dasatinib analyzed at mRNA and protein levels. (A) Differential baseline expression of PLAU gene between resistant (R, in black) and sensitive (S, in red) cell lines. The X-values are the expression level in log2-scale. The resistant cell line expressing high level of PLAU was WPMY1 and the sensitive cell line expressing low level of PLAU was LNCaP. (B) Down-regulation of PLAU mRNA level by dasatinib-treatment in 5 sensitive cell lines. The cells were treated with 100 nM dasatinib (+D) or DMSO (Ctrl) for 48 hours. The p value was 0.048 in paired t-test, indicating a significant reduction of PLAU mRNA following dasatinib treatment. (C) Correlation between dasatinib-induced PLAU mRNA down-regulation with the sensitivity of cell lines to dasatinib. […] The amount of uPA protein secreted into the culture medium by 50,000 viable cells was assessed by ELISA assay. […]
Cell were seeded in 24-well plates at density of 25,000 cells/well. […] Total number of cells were also quantitated using a cell counter, and the number of viable cells were assessed with Trypan Blue. The amount of uPA protein in the supernatant was determined using the uPA ELISA kit (America Diagnostica, Stamford, Conn.), and the concentrations of uPA secreted by 50,000 viable cells into the medium were calculated.

uPA protein = uPA protein level in plasma of mice bearing PC3 xenograft tumors (ELISA); type: in vivo, nu/nu athymic mice; settings: 30 mg/kg orally twice a day; following first week of treatment
Description: FIG. 5. […] Xenograft tumors were established subcutaneously in nu/nu athymic mice. The mice were divided into three groups each with 8 mice after tumors had reached approximately 200 mg. […] Dasatinib was administered orally twice a day on a 5-day-on 2-day-off schedule for 20 doses. The tumor size measurement and blood sampling were performed prior to treatment and weekly for two weeks after treatment initiation. […] Experiments were performed as described in Example 2.
The mice were divided into three groups each with 8 mice after tumors had reached approximately 200 mg. […] Dasatinib was administered orally twice a day on a 5-day-on 2-day-off schedule for 20 doses. The tumor size measurement and blood sampling were performed prior to treatment and weekly for two weeks after treatment initiation. Tumor weight was determined using the following equation: tumor weight=(length*width^2)/2.

In the case of `Cc1nc(Nc2ncc(C(=O)Nc3c(C)cccc3Cl)s2)cc(N2CCN(CCO)CC2)n1` [BMS-A, N-(2-chloro-6-methylphenyl)-2-[[6-[4-(2-hydroxyethyl)-1-piperazinyl]-2-methyl-4-pyrimidinyl]amino]-5-thiazolecarboxamide], the “reduction of PLAU mRNA expression” value (PLAU mRNA; DU145 cells) is reported as “approximately 50%”, the “reduction of PLAU mRNA expression” value (PLAU mRNA; LNCaP cells) is reported as “showed a reduction” and the “reduction of PLAU mRNA expression” value (PLAU mRNA; PC3 cells) is reported as “approximately 50%”. For the same molecule, the “reduction of PLAU mRNA level, multiple-dose treatment study” value (PLAU mRNA; PC3 cells, 4 h, all doses vs untreated control) was “minimal”, the “reduction of PLAU mRNA level, multiple-dose treatment study” value (PLAU mRNA; PC3 cells, 24 h, dose-dependent) was “dramatic” and the “reduction of PLAU mRNA expression” value (PLAU mRNA; PWR1E cells (CK5-expressing)) was “relatively mild reduction”. The “reduction of PLAU mRNA expression” value (PLAU mRNA; RWPE2 cells (CK5-expressing)) was “relatively mild reduction”, the “amount of uPA protein secreted into the growth medium” value [1] was “reduced” and the “reduction of plasma uPA level” value (uPA protein) was about 30%.

— patent US20100120788A1, “IDENTIFICATION OF POLYNUCLEOTIDES FOR […] OF COMPOUNDS THAT […] WITH AND/OR MODULATE PROTEIN TYROSINE KINASES AND/OR PROTEIN TYROSINE KINASE […] IN PROSTATE CELLS” (Bristol-Myers Squibb Company, priority 2007, published 2010)
